What was measured:
[1] = biological target: T1, 5-hydroxytryptamine receptor 4 (Homo sapiens, UniProt Q13639); assay: Agonist activity at full-length human 5-HT4R stably expressed in HEK293 cells assessed as increase in intracellular cAMP level incubated for 30 mins under dark condition by reporter gene assay; assay type: functional, cell-based
[2] = biological target: T1, 5-hydroxytryptamine receptor 4; assay: Agonist activity at full-length human 5-HT4R stably expressed in HEK293 cells assessed as increase in intracellular cAMP level incubated for 30 mins under dark condition by reporter gene assay relative to control; assay type: functional, cell-based
[3] = biological target: T1, 5-hydroxytryptamine receptor 4; assay: Displacement of [3H]-GR113808 from full-length human 5-HT4R stably expressed in HEK293 cell membrane by MicroBeta2 Reader analysis; assay type: cell membranes
[4] = biological target: Voltage-gated inwardly rectifying potassium channel KCNH2 (Homo sapiens, UniProt Q12809); assay: Inhibition of hERG; assay type: toxicity
[5] = Apparent permeability coefficient of compound at 10 uM incubated for 4 hrs by PAMPA; assay type: ADME
[6] = Permeability of compound assessed as compound recovery at 10 uM incubated for 4 hrs by PAMPA; assay type: ADME; conditions: read-out: Drug recovery

T1 sequence (Q13639 whole entry): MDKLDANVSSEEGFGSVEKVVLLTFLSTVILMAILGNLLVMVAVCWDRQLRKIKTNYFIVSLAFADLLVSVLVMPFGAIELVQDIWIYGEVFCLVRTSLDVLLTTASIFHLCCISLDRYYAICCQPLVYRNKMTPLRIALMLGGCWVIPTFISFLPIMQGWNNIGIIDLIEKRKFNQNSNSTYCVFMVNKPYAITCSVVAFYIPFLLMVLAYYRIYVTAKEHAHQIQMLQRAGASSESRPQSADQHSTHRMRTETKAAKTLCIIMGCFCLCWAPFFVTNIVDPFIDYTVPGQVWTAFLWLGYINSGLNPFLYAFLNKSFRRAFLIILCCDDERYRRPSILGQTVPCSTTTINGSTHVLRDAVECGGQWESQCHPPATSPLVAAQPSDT
Chain of Voltage-gated inwardly rectifying potassium channel KCNH2 (Q12809 whole entry): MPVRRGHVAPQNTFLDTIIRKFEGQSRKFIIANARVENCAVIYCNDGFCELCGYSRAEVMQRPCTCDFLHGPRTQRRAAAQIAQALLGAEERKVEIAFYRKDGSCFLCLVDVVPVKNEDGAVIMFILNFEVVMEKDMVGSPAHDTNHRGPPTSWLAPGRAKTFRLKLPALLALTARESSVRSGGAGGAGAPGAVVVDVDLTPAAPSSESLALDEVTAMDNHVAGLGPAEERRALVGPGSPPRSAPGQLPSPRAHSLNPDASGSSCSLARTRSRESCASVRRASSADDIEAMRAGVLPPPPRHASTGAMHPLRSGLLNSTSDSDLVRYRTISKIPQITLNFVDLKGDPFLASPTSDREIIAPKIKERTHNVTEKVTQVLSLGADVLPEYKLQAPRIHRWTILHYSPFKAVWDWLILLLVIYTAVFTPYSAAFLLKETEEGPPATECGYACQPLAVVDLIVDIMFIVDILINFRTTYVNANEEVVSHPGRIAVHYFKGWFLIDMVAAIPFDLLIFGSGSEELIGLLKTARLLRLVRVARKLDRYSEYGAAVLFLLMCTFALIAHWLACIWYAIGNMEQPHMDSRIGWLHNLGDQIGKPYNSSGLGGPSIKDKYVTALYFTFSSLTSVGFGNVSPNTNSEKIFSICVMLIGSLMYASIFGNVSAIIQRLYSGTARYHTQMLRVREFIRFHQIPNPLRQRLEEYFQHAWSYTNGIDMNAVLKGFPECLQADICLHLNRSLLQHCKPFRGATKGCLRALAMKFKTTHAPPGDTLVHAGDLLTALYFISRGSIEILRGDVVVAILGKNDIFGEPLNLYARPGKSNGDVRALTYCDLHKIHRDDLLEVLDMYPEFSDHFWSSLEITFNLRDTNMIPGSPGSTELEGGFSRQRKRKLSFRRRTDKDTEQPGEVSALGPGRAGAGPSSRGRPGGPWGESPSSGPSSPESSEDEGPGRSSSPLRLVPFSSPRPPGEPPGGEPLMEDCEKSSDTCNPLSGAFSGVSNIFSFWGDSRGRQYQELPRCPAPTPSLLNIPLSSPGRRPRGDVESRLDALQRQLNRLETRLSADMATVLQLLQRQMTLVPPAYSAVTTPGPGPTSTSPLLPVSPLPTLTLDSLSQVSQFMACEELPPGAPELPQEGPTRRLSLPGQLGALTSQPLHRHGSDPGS

SMILES | EC50 [1] | Efficacy ([2]; filed as agonist) | also measured
Nc1c(Cl)cc(C(=O)NC2CCN(CCCCCC(=O)NCCOCCOCCNC(=O)NCCCCNC(=O)NCCOCCOCCNC(=O)CCCCCN3CCC(NC(=O)c4cc(Cl)c(N)c5c4OCC5)CC3)CC2)c2c1CCO2 | 3.81 nM | 106% | 
Nc1c(Cl)cc(C(=O)NC2CCN(CCC(=O)NCCOCCOCCNC(=O)N[C@H]3C[C@H](NC(=O)NCCOCCOCCNC(=O)CCN4CCC(NC(=O)c5cc(Cl)c(N)c6c5OCC6)CC4)C3)CC2)c2c1CCO2 | 2.66 nM | 115% | 
Nc1c(Cl)cc(C(=O)NC2CCN(CCC(=O)NCCOCCOCCNC(=O)CCC(=O)NCCOCCOCCNC(=O)CCN3CCC(NC(=O)c4cc(Cl)c(N)c5c4OCC5)CC3)CC2)c2c1CCO2 | 4.71 nM | 116% | 
Nc1c(Cl)cc(C(=O)NC2CCN(CCC(=O)NCCOCCOCCNC(=O)C3(C(=O)NCCOCCOCCNC(=O)CCN4CCC(NC(=O)c5cc(Cl)c(N)c6c5OCC6)CC4)CC3)CC2)c2c1CCO2 | 2.5 nM | 128% | 
Nc1c(Cl)cc(C(=O)NC2CCN(CCNC(=O)CCOCCOCCNC(=O)NCCCCNC(=O)NCCOCCOCCNC(=O)CCN3CCC(NC(=O)c4cc(Cl)c(N)c5c4OCC5)CC3)CC2)c2c1CCO2 | 5.18 nM | 89.7% | 
CC(C)(C(=O)NCCOCCOCCNC(=O)CCN1CCC(NC(=O)c2cc(Cl)c(N)c3c2OCC3)CC1)C(=O)NCCOCCOCCNC(=O)CCN1CCC(NC(=O)c2cc(Cl)c(N)c3c2OCC3)CC1 | 5.46 nM | 129% | 
Nc1c(Cl)cc(C(=O)NC2CCN(CCCC(=O)NCCOCCOCCNC(=O)NCCCCNC(=O)NCCOCCOCCNC(=O)CCCN3CCC(NC(=O)c4cc(Cl)c(N)c5c4OCC5)CC3)CC2)c2c1CCO2 | 2.33 nM | 92.4% | 
Nc1c(Cl)cc(C(=O)NC2CCN(CCC(=O)NCCCCCCCCNC(=O)NCCNC(=O)NCCCCCCCCNC(=O)CCN3CCC(NC(=O)c4cc(Cl)c(N)c5c4OCC5)CC3)CC2)c2c1CCO2 | 5.88 nM | 125% | 
Nc1c(Cl)cc(C(=O)NCC2CCN(CCCCCNC(=O)CCOCCOCCNC(=O)NCCCCNC(=O)NCCOCCOCCC(=O)NCCCCCN3CCC(CNC(=O)c4cc(Cl)c(N)c5c4OCC5)CC3)CC2)c2c1CCO2 | 0.17 nM | 113% | Ki [3]: 1.49 nM
Nc1c(Cl)cc(C(=O)NC2CCN(CCCCC(=O)NCCOCCOCCNC(=O)NCCCCNC(=O)NCCOCCOCCNC(=O)CCCCN3CCC(NC(=O)c4cc(Cl)c(N)c5c4OCC5)CC3)CC2)c2c1CCO2 | 3.02 nM | 102% | 
CC(C)n1nc(-c2nnc(C3CCN(CCC(=O)NCCOCCOCCNC(=O)NCCCCNC(=O)NCCOCCOCCNC(=O)CCN4CCC(c5nnc(-c6nn(C(C)C)c7ccccc67)o5)CC4)CC3)o2)c2ccccc21 | > 10000 nM | 47.8% | 
Nc1c(Cl)cc(C(=O)NC2CCN(CCC(=O)NCCOCCOCCNC(=O)NCCCCNC(=O)NCCOCCOCCNC(=O)CCN3CCC(NC(=O)c4cc(Cl)c(N)c5c4OCC5)CC3)CC2)c2c1CCO2 | 6.46 nM | 112% | Ki [3]: 197 nM
Nc1c(Cl)cc(C(=O)NC2CCN(CCC(=O)NCCOCCOCCNC(=O)C3(C(=O)NCCOCCOCCNC(=O)CCN4CCC(NC(=O)c5cc(Cl)c(N)c6c5OCC6)CC4)CCCCC3)CC2)c2c1CCO2 | 3 nM | 116% | 
Nc1c(Cl)cc(C(=O)NC2CCN(CCC(=O)NCCOCCOCCNC(=O)COCC(=O)NCCOCCOCCNC(=O)CCN3CCC(NC(=O)c4cc(Cl)c(N)c5c4OCC5)CC3)CC2)c2c1CCO2 | 4.91 nM | 104% | 
COc1cc(N)c(Cl)cc1C(=O)NC1CCN(CCC(=O)NCCOCCOCCNC(=O)NCCCCNC(=O)NCCOCCOCCNC(=O)CCN2CCC(NC(=O)c3cc(Cl)c(N)cc3OC)CC2)CC1 | 43.6 nM | 102% | 
Nc1c(Cl)cc(C(=O)NC2CCN(CCNCCOCCOCCNC(=O)N[C@H]3CCCC[C@@H]3NC(=O)NCCOCCOCCNC(=O)CCN3CCC(NC(=O)c4cc(Cl)c(N)c5c4OCC5)CC3)CC2)c2c1CCO2 | 3.1 nM | 85.6% | 
Nc1c(Cl)cc(C(=O)NC2CCN(CCC(=O)NCCOCCOCCNC(=O)N[C@H]3CC[C@H](NC(=O)NCCOCCOCCNC(=O)CCN4CCC(NC(=O)c5cc(Cl)c(N)c6c5OCC6)CC4)CC3)CC2)c2c1CCO2 | 6.82 nM | 122% | 
Nc1c(Cl)cc(C(=O)NC2CCN(CCC(=O)NCCOCCNC(=O)NCCCCNC(=O)NCCOCCNC(=O)CCN3CCC(NC(=O)c4cc(Cl)c(N)c5c4OCC5)CC3)CC2)c2c1CCO2 | 3.71 nM | 119% | 
Nc1c(Cl)cc(C(=O)NC2CCN(CCC(=O)NCCOCCNC(=O)NCCOCCNC(=O)CCN3CCC(NC(=O)c4cc(Cl)c(N)c5c4OCC5)CC3)CC2)c2c1CCO2 | 0.85 nM | 123% | 
Nc1c(Cl)cc(C(=O)NC2CCN(CCC(=O)NCCOCCOCCNC(=O)C(O)C(O)C(=O)NCCOCCOCCNC(=O)CCN3CCC(NC(=O)c4cc(Cl)c(N)c5c4OCC5)CC3)CC2)c2c1CCO2 (configuration not stated) | 3.28 nM | 123% | 

SMILES | EC50 [1] | Efficacy ([2]; filed as agonist) | also measured
Nc1c(Cl)cc(C(=O)NCCC2CCN(CCC(=O)NCCOCCOCCNC(=O)NCCCCNC(=O)NCCOCCOCCNC(=O)CCN3CCC(CCNC(=O)c4cc(Cl)c(N)c5c4OCC5)CC3)CC2)c2c1CCO2 | 81.4 nM | 102% | 
Nc1c(Cl)cc(C(=O)NC2CCN(CCC(=O)NCCOCCOCCNC(=O)NCCOCCOCCNC(=O)CCN3CCC(NC(=O)c4cc(Cl)c(N)c5c4OCC5)CC3)CC2)c2c1CCO2 | 0.95 nM | 103% | 
O=C(CCN1CCC(COc2noc3c(O[C@@H]4CCOC4)cccc23)CC1)NCCOCCOCCNC(=O)NCCCCNC(=O)NCCOCCOCCNC(=O)CCN1CCC(COc2noc3cccc(O[C@@H]4CCOC4)c23)CC1 | > 10000 nM |  | Efficacy [2]: 0.16%
Nc1c(Cl)cc(C(=O)NC2CCN(CCCC(=O)NCCOCCNC(=O)NCCOCCNC(=O)CCCN3CCC(NC(=O)c4cc(Cl)c(N)c5c4OCC5)CC3)CC2)c2c1CCO2 | 0.33 nM | 88.6% | Ki [3]: 75 nM
Nc1c(Cl)cc(C(=O)NC2CCN(CCC(=O)NCCCCCCCCNC(=O)NCCCCCCNC(=O)NCCCCCCCCNC(=O)CCN3CCC(NC(=O)c4cc(Cl)c(N)c5c4OCC5)CC3)CC2)c2c1CCO2 | 17.6 nM | 90.9% | 
Nc1c(Cl)cc(C(=O)NC2CCN(CCC(=O)NCCOCCOCCNC(=O)C3(C(=O)NCCOCCOCCNC(=O)CCN4CCC(NC(=O)c5cc(Cl)c(N)c6c5OCC6)CC4)CCCC3)CC2)c2c1CCO2 | 2.99 nM | 130% | 
Nc1c(Cl)cc(C(=O)NC2CCN(CCC(=O)NCCOCCOCCNC(=O)c3ccc(C(=O)NCCOCCOCCNC(=O)CCN4CCC(NC(=O)c5cc(Cl)c(N)c6c5OCC6)CC4)cc3)CC2)c2c1CCO2 | 5.67 nM | 110% | 
Nc1c(Cl)cc(C(=O)NC2CCN(CCC(=O)NCCOCCOCCNC(=O)C3(C(=O)NCCOCCOCCNC(=O)CCN4CCC(NC(=O)c5cc(Cl)c(N)c6c5OCC6)CC4)CCC3)CC2)c2c1CCO2 | 8.05 nM | 122% | 
COCCCN1CCC(NC(=O)c2cc(Cl)c(N)c3c2OCC3)CC1 [PRUCALOPRIDE] |  | 110% | IC50 [4]: 4100 nM; Papp at 4 h, 10 µM [5]: < 0.0185 ×10⁻⁶ cm/s; recovery at 4 h, 10 µM [6]: 92.4%
Nc1c(Cl)cc(C(=O)NC2CCN(CCC(=O)NCCOCCOCCNC(=O)N3CCN(C(=O)NCCOCCOCCNC(=O)CCN4CCC(NC(=O)c5cc(Cl)c(N)c6c5OCC6)CC4)CC3)CC2)c2c1CCO2 | 7.08 nM | 127% | 
Nc1c(Cl)cc(C(=O)NCC2CCN(CCC(=O)NCCOCCOCCNC(=O)NCCCCNC(=O)NCCOCCOCCNC(=O)CCN3CCC(CNC(=O)c4cc(Cl)c(N)c5c4OCC5)CC3)CC2)c2c1CCO2 | 0.4 nM | 107% | Ki [3]: 54.8 nM
Nc1c(Cl)cc(C(=O)NC2CCN(CCC(=O)NCCOCCOCCNC(=O)N3CC4(C3)CN(C(=O)NCCOCCOCCNC(=O)CCN3CCC(NC(=O)c5cc(Cl)c(N)c6c5OCC6)CC3)C4)CC2)c2c1CCO2 | 11.4 nM | 122% | 
Nc1c(Cl)cc(C(=O)NC2CCN(CCC(=O)NCCOCCOCCNC(=O)Nc3ccc(NC(=O)NCCOCCOCCNC(=O)CCN4CCC(NC(=O)c5cc(Cl)c(N)c6c5OCC6)CC4)cc3)CC2)c2c1CCO2 | 10.5 nM | 89.8% | 
Nc1c(Cl)cc(C(=O)NCC2CCN(CCCCCC(=O)NCCOCCOCNC(=O)N[C@H]3CC[C@H](NC(=O)NCOCCOCCNC(=O)CCCCCN4CCC(CNC(=O)c5cc(Cl)c(N)c6c5OCC6)CC4)CC3)CC2)c2c1CCO2 | 1.39 nM | 104% | 
CN(CCOCCNC(=O)NCCOCCN(C)C(=O)CCCN1CCC(NC(=O)c2cc(Cl)c(N)c3c2OCC3)CC1)C(=O)CCCN1CCC(NC(=O)c2cc(Cl)c(N)c3c2OCC3)CC1 | 0.07 nM | 95.3% | Ki [3]: 98.9 nM
Nc1c(Cl)cc(C(=O)NC2CCN(CCC(=O)NCCOCCOCCNC(=O)N[C@H]3CC[C@@H](NC(=O)NCCOCCOCCNC(=O)CCN4CCC(NC(=O)c5cc(Cl)c(N)c6c5OCC6)CC4)CC3)CC2)c2c1CCO2 | 2.08 nM | 108% | 
Nc1c(Cl)cc(C(=O)NC2CCN(CCC(=O)NCCCCCCCCNC(=O)NCCCCNC(=O)NCCCCCCCCNC(=O)CCN3CCC(NC(=O)c4cc(Cl)c(N)c5c4OCC5)CC3)CC2)c2c1CCO2 | 747 nM | 125% | 
Nc1c(Cl)cc(C(=O)NC2CCN(CCC(=O)NCCOCCOCCOCCNC(=O)NCCCCNC(=O)NCCOCCOCCOCCNC(=O)CCN3CCC(NC(=O)c4cc(Cl)c(N)c5c4OCC5)CC3)CC2)c2c1CCO2 | 6.71 nM | 125% | 
Nc1c(Cl)cc(C(=O)NC2CCN(CCC(=O)NCCOCCOCCOCCNC(=O)NCCOCCOCCOCCNC(=O)CCN3CCC(NC(=O)c4cc(Cl)c(N)c5c4OCC5)CC3)CC2)c2c1CCO2 | 1.07 nM | 119% | 
Nc1c(Cl)cc(C(=O)NC2CCN(CCC(=O)NCCOCCOCCNC(=O)/C=C/C(=O)NCCOCCOCCNC(=O)CCN3CCC(NC(=O)c4cc(Cl)c(N)c5c4OCC5)CC3)CC2)c2c1CCO2 | 6.69 nM | 98% | 

— ChEMBL document CHEMBL6134817, “Novel gut-restricted bivalent agonists targeting mucosal 5-HT4R: Design, synthesis, and biological evaluation” (Eur J Med Chem, 2025)
